Measured values reported in patent US4822879A, “Enzyme-inhibitory griseolic acid derivatives, and their use” (Sankyo Company Limited, priority 1984, dated 1989).

How the values were obtained:
cAMP PDE = experiment: Enzyme inhibitory activity, cAMP PDE (crude enzymatic solution from rat brains); type: biochemical; settings: for IC50: 14C-labeled cAMP substrate 0.14 μmoles, pH 8.0, 30° C., 20 minutes, read-out: I50 (50% inhibition value); for potency relative to papaverine: ratio to papaverine
Protocol: The enzyme inhibitory activity of dihydrodesoxygriseolic acid was measured, as was that of griseolic acid itself and that of the known cAMP PDE inhibitor, papaverine, for purposes of comparison.
The test was carried out following essentially the method of A. L. Pichard and Y. U. Chung [Journal of Biological Chemistry, 251, 5726-5737 (1976)]. A crude enzymatic solution derived from rat brains was used as the source of cAMP PDE.
^14 C-labeled cAMP was used as the substrate. It was employed in a 0.2M Tris-hydrochloric acid buffer solution (pH 8.0) in an amount sufficient to provide a final concentration of 0.14 μmoles. "Tris" is tris(hydroxymethyl)aminomethane. The substrate solution was mixed with an appropriate amount of the compound under test dissolved in 2-5 μl of dimethyl sulfoxide and with 20 μl of a snake venom solution and 40 μl of the crude enzyme solution. Sufficient Tris-hydrochloric acid buffer was added to make a total volume of 100 μl. The mixture was allowed to react at 30° C. for 20 minutes. At the end of this time, the reaction mixture was treated with an Amberlite (trademark) IRP-58 resin and the level of residual adenosine radioactivity in the product was determined.
The results are shown in the following Table 1, in which the I50 values are given in μmoles.

[1] = Water solubility (stated in words); type: physicochemical
[2] = tested on: male mice of the ddY strain; experiment: Acute toxicity, intravenous, mice; settings: in words, from Table 2
Source text: The compounds under test were griseolic acid and dihydrodesoxygriseolic acid. The test animals were male mice of the ddY strain, 5 weeks of age and weighing 24.25 g. The mice were employed in groups of 3 or 5 animals for each test.
Administration was intravenous.
The results are reported in Table 2, in the form "a/b", where "a" is the number of deceased animals in the test group at the end of the test and "b" is the total number of animals in the relevant test group.

SMILES	IC50 (cAMP PDE)	potency relative to papaverine (cAMP PDE; from Table 1)	water solubility [1]	toxicity compared with griseolic acid [2]	inhibitory activity compared with griseolic acid (cAMP PDE; in words, from Table 1)
Nc1ncnc2c1ncn2[C@@H]1OC2=C[C@@](C(=O)O)(C(O)C(=O)O)O[C@H]2[C@H]1O (some centres unmarked) [griseolic acid]	0.16 µM	about 20 times			
Nc1ncnc2c1ncn2C1OC2CC(CC(=O)O)(C(=O)O)OC2C1O (centres unmarked) [dihydrodesoxygriseolic acid]	0.12 µM	about 20 times	water-soluble	substantially less toxic than griseolic acid	comparable with that of griseolic acid
COc1ccc(Cc2nccc3cc(OC)c(OC)cc23)cc1OC [papaverine, reference compound]	3.5 µM				
